Values joined by “and” are separate entries in the source; they are usually repeats but may differ in a detail not shown here. Equal values may be shown once. Where a name gives a salt, the structure may show the parent alone.
What was measured:
human mGluR4 (hmGluR4) = biological target: T1, human mGluR4 (hmGluR4) (Homo sapiens, UniProt Q14833); experiment: Calcium assay EC50 determination, positive allosteric modulator activity on hmGluR4 transiently over-expressed in HEK-293 cells; type: cell-based; details: PAM mode with EC20 glutamate; hmGluR4 in HEK-293 cells; intracellular calcium (Fluo4AM); read-out: mGluR4 positive allosteric modulator activity, half maximal effective concentration (EC50)
T1 construct: expressed in transfected cells; host or cells: HEK-293 cells, transient co-transfection by electroporation
T1 sequence (Q14833 33-912): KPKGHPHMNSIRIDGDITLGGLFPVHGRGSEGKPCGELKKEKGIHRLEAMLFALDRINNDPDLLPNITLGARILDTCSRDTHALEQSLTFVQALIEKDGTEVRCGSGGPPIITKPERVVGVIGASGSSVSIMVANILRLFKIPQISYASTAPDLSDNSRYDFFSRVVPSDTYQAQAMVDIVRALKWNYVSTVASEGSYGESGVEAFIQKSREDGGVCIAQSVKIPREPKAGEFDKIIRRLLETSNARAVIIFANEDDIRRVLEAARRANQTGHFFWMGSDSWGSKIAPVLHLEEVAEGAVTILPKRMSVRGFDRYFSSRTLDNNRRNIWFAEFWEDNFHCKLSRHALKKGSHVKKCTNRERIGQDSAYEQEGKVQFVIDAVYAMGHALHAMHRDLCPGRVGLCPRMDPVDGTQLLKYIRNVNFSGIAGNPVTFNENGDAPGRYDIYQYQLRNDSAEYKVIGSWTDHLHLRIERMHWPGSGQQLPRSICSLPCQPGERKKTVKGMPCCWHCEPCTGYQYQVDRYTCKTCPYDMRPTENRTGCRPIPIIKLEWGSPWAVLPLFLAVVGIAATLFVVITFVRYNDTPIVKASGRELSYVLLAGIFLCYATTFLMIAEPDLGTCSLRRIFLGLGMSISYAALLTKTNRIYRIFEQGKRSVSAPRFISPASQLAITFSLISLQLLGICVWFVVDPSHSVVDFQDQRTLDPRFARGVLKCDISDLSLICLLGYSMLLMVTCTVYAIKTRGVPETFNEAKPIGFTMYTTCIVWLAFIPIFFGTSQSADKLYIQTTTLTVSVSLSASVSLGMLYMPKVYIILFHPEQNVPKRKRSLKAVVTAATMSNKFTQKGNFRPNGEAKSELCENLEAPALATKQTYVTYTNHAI
Method in brief: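 HEK-293 cells transiently co-transfected with hmGluR4, chimeric G protein and glutamate transporters; Fluo4AM calcium read (ex 485/em 525 nm) on FLIPR Tetra. Compound alone 10 min for agonism, then EC20 glutamate with 3 min recording for PAM activity, versus buffer or EC20 glutamate basal.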

[1] = test system: haloperidol-induced catalepsy; experiment: Haloperidol-induced catalepsy model in the mouse (bar test); type: in vivo; details: 1 mg/kg per os 60 minutes after haloperidol (1 mg/kg i.p.), measured between 135 and 270 min after haloperidol injection
Description: This method, which detects anti-cataleptic activity, follows those well-known by one skilled in the art and described in the literature (e.g. Pires et al., Braz J Med and Biol Res 38, 1867-1872, 2005; Shiozaki et al., Psychopharmacology 147, 90-95, 1999). Catalepsy is a symptom of Parkinson's disease, and is characterized by muscular rigidity and fixity of posture.
The procedure applied to the compounds of the invention is as follows:
Catalepsy is assessed using the bar test in mice submitted to acute administration of haloperidol (1 mg/kg, intra-peritoneal or i.p.). Mice (male RjOrl:SWISS mice, weighing 30-35 g at the beginning of the experiment) were placed (6 to 9 in each group) in Plexiglas cages, and injected with haloperidol (1 mg/kg i.p.). The catalepsy response of one mouse was measured when the animal maintained an imposed posture with both forelimbs placed on a horizontal 0.9 cm diameter wire bar suspended 4 cm above a platform. The end point of catalepsy was considered to occur when both forelimbs were removed from the bar, the mouse climbed onto the bar or if the animal moved its head in an exploratory manner. A cut-off time of 180 seconds was applied. The degree of catalepsy was scored 45 minutes after haloperidol administration and continued at 45 minutes intervals for a total of 270 minutes. Between determinations, the animals were returned to their home cages.
Compounds 81, 100, 114, 119, 143 and 144 were evaluated at 1 mg/kg, administered per os, 60 minutes after haloperidol, and compared with a vehicle control group.
The anti-cataleptic effect of the compound was compared to vehicle-treated group using ANOVA test followed by the Dunnett's test.

Cc1cc(CN2CCOCC2)cc2c(=O)[nH]c(-c3cc4sccc4cn3)nc12.Cl [Compound 119, 8-Methyl-6-(morpholinomethyl)-2-(thieno[3,2-c]pyridin-6-yl)quinazolin-4(3H)-one hydrochloride]
melting point: > 250 °C | EC50 (human mGluR4 (hmGluR4)): ≤ 100 nM | anti-cataleptic effect (mean time of latency spent on the bar) compared to vehicle-treated group [1]: significant anti-cataleptic effect

Cc1cc(CN2CCOCC2)cc2c(=O)[nH]c(-c3cc4ccsc4cn3)nc12 [Compound 114, 8-methyl-6-(morpholinomethyl)-2-thieno[2,3-c]pyridin-5-yl-3H-quinazolin-4-one hydrochloride]
EC50 (human mGluR4 (hmGluR4)): ≤ 100 nM | anti-cataleptic effect (mean time of latency spent on the bar) compared to vehicle-treated group [1]: significant anti-cataleptic effect

Cc1cc(CCN2CCN(C)C(=O)C2)cc2c(=O)[nH]c(-c3cc4sccc4cn3)nc12.Cl [Compound 143, 8-Methyl-6-[2-(4-methyl-3-oxo-piperazin-1-yl)ethyl]-2-thieno[3,2-c]pyridin-6-yl-3H-quinazolin-4-one hydrochloride]
melting point: > 250 °C | EC50 (human mGluR4 (hmGluR4)): ≤ 100 nM | anti-cataleptic effect (mean time of latency spent on the bar) compared to vehicle-treated group [1]: significant anti-cataleptic effect

Cc1cc(OC2CCC(=O)N(C)C2)cc2c(=O)[nH]c(-c3cc4ccsc4cn3)nc12 (stereo not drawn) [Compound 81, 8-Methyl-6-(1-methyl-6-oxo-piperidin-3-yloxy)-2-thieno[2,3-c]pyridin-5-yl-3H-quinazolin-4-one]
melting point: 221 to 225 °C | EC50 (human mGluR4 (hmGluR4)): ≤ 100 nM | anti-cataleptic effect (mean time of latency spent on the bar) compared to vehicle-treated group [1]: significant anti-cataleptic effect

Cc1cc(CCN2CCOCC2)cc2c(=O)[nH]c(-c3cc4ccsc4cn3)nc12 [Compound 100, 8-methyl-6-(2-morpholin-4-yl-ethyl)-2-thieno[2,3-c]pyridin-5-yl-3H-quinazolin-4-one hydrochloride]
EC50 (human mGluR4 (hmGluR4)): ≤ 100 nM | anti-cataleptic effect (mean time of latency spent on the bar) compared to vehicle-treated group [1]: significant anti-cataleptic effect

Cl.O=c1[nH]c(-c2cc(C(F)(F)F)ccn2)nc2ccc(OCCCc3ccncc3)cc12 [Compound 9, 6-(3-Pyridin-4-yl-propoxy)-2-(4-trifluoromethyl-pyridin-2-yl)-3H-quinazolin-4-one hydrochloride]
melting point: 239 to 245 °C | EC50 (human mGluR4 (hmGluR4)): 100 to 1000 nM and < 1000 nM

Cc1cc(CCN2C3CCC2COC3)cc2c(=O)[nH]c(-c3cc(C(F)(F)F)ccn3)nc12.Cl [Compound 163, 6-(2-(3-oxa-8-azabicyclo[3.2.1]octan-8-yl)ethyl)-8-methyl-2-(4-(trifluoromethyl)pyridin-2-yl)quinazolin-4(3H)-one hydrochloride]
melting point: 200 to 250 °C | EC50 (human mGluR4 (hmGluR4)): ≤ 100 nM

COc1cnccc1CCCOc1ccc2nc(-c3cc4ccsc4cn3)[nH]c(=O)c2c1.Cl [Compound 62, 6-[3-(3-Methoxy-pyridin-4-yl)-propoxy]-2-thieno[2,3-c]pyridin-5-yl-3H-quinazolin-4-one hydrochloride]
melting point: 250 to 251 °C | EC50 (human mGluR4 (hmGluR4)): 100 to 1000 nM

Cl.O=c1[nH]c(-c2cc3sccc3cn2)nc2ccc(OCCCc3cccnc3)cc12 [Compound 37, 6-(3-Pyridin-3-yl-propoxy)-2-thieno[3,2-c]pyridin-6-yl-3H-quinazolin-4-one hydrochloride]
melting point: 149 to 154 °C | EC50 (human mGluR4 (hmGluR4)): 100 to 1000 nM

COc1cc(CCN2CCOCC2)cc2c(=O)[nH]c(-c3cc(C(F)(F)F)ccn3)nc12.Cl [Compound 158, 8-Methoxy-6-(2-morpholinoethyl)-2-(4-(trifluoromethyl)pyridin-2-yl)quinazolin-4(3H)-one hydrochloride]
melting point: > 250 °C | EC50 (human mGluR4 (hmGluR4)): 1000 to 10000 nM

Cc1cc(OCC2(F)CCOC2)cc2c(=O)[nH]c(-c3cc(C(F)(F)F)ccn3)nc12 (stereo not drawn) [Compound 112, 6-[(3-fluorotetrahydrofuran-3-yl)methoxy]-8-methyl-2-[4-(trifluoromethyl)-2-pyridyl]-3H-quinazolin-4-one]
melting point: 188 to 195 °C | EC50 (human mGluR4 (hmGluR4)): ≤ 100 nM

O=c1[nH]c(-c2cc3ccsc3cn2)nc2ccc(OCCCc3cocn3)cc12 [Compound 64, 6-(3-Oxazol-4-yl-propoxy)-2-thieno[2,3-c]pyridin-5-yl-3H-quinazolin-4-one]
melting point: 197 to 199 °C | EC50 (human mGluR4 (hmGluR4)): 100 to 1000 nM

— patent US20220089609A1, “SUBSTITUTED QUINAZOLINONE DERIVATIVES AND THEIR USE AS POSITIVE ALLOSTERIC MODULATORS OF MGLUR4” (DOMAIN THERAPEUTICS, priority 2018, published 2022)
